Measured values reported in patent US7456154B2 (priority 2001, dated 2008).

Columns and labels:
[1] = Stability of hEN101 in human plasma and blood; format: in vitro ADME
Experimental: Exposure at room temperature to Li-heparin-treated blood caused a decay of hEN101 with a half-life in the order of 30 min.

EAMG rats = assay: Repeated daily treatment of EAMG rats (5 days and 1 month): survival, body weight, status; format: in vivo, rat
Source text: As shown in Example 5, unlike anti-cholinesterases, rEN101 afforded long-term maintenance of stable CMAP. This further enabled the inventors to test whether the cholinergic imbalance contributes to the physiological deterioration that is characteristic of EAMG. Rats were first treated with rEN101 once a day for 5 days, CMAPs being determined prior to each treatment. Both the efficacy of rEN101 in retrieving normal CMAP and its capacity to reduce the inter-animal variability in CMAP values reached similar levels to those of pyridostigmine (FIGS. 11A and 11B). However, the onset of response to pyridostigmine was more rapid (Table 1), while that observed with rEN101 was longer-lasting. Daily oral or i.v administration of rEN101 stabilized CMAPs over the entire course of treatment (FIG. 11B). In contrast, the effect of pyridostigmine wore off within several hours, causing pronounced fluctuations in muscle status (Table 1 and FIG. 11). Among the animals treated daily with pyridostigmine, 5 out of 6 died within the 5 day experimental course. In contrast, 6 out of 8 animals treated once-a-day with rEN101 via o.g. survived the full 5 day period. This conspicuous difference might reflect the susceptibility of EAMG rats to repeated anesthesia and CMAP measurements. In order to avoid these additional stresses and evaluate the effect of the antisense treatment on EAMG pathophysiology, the inventors subjected groups of moderately sick animals to 1 month of daily oral treatment with minimal interference. […] One way repeated measures ANOVA yielded P<0.05 for all other measures (AS vs. other treatments at 4 weeks). The effect of rEN101 on clinical symptoms was also corroborated by body weight changes. Rats treated with saline and Mestinon treated groups lost 13.5 and 11 g/animal, respectively, whereas animals treated with rEN101 gained, on average, 13 g during the treatment period. Thus, daily rEN101 administration promoted long-term change in the course of EAMG in rats with moderate to severe symptoms, under the same conditions in which untreated or pyridostigmine-treated animals deteriorated.

AChE-R = assay: Immunoblot densitometry of serum AChE-R in EAMG rats; format: in vivo, rat; conditions: 24 h after single i.v. injection of 250 μg/Kg
Experimental: Serum analyses: Blood samples drawn from EAMG rats and MG patients were subjected to non-denaturing gel electrophoresis as described [Kaufer et al. (1998) id ibid], as well as to catalytic activity measurements of AChE [Shapira et al. (2000) id ibid]. Iso-OMPA (tetraisopropylpyrophosphoramide, […]), was used to block butyrylcholinesterase activity in the serum samples. For activity staining on polyacrylamide gels [Kaufer et al. (1998) id ibid] we used 5-10−6 M iso-OMPA.
To evaluate the physiological outcome of this suppression, compound muscle action potentials (CMAPs) from the gastrocnemius muscle were recorded. […] The baseline decline, the percent difference in the heights of the fifth and the first evoked potentials, ranged from 10% to 36% (mean±SEM=13.0±2.5%, FIG. 9B, inset) as compared to 4.0±0.9% among healthy rats. The standard therapy for MG patients is administration of anti-cholinesterases, which elevate ACh levels to a threshold that enables receptor activation. Accordingly, neostigmine bromide (Prostigmine™, 75 μg/kg) was administered via i.p. This rapidly and effectively corrected the CMAP decline in EAMG rats, from 87.6% of the first evoked potential in untreated animals to […] of this level (i.e. 107.4%) of the first evoked potential). […]

For 5′-CTGCCACGTTCTCCTGCACC-3′ [hEN101], the “Stability, remaining concentration” value ([1]; 2 h in human plasma with EDTA at room temperature) was > 90 % of original concentration, the Half-life of decay ([1]; Li-heparin-treated blood at room temperature) was roughly 30 min and the “Stability, remaining concentration” value ([1]; after 1 month at −20° C.) was > 90 % of original concentration. The “Stability, remaining concentration” value ([1]; following three freeze/thawing cycles) was > 90 % of original concentration.

In the case of “5′-CTGCGATATTTTCTTGTACC-3′ (chemistry not given here) [rEN101]”, the “Animals that survived the full 5 day period” value (EAMG rats; EAMG rats treated once-a-day via o.g.) is reported as 6 out of 8, the “Survival, clinical status and treadmill performance vs pyridostigmine- and saline-treated animals” value (EAMG rats; EAMG rats, 1 month daily oral doses (50 μg/Kg)) is reported as “significant improvement in survival, clinical status and treadmill performance” and the “Body weight gained during the treatment period, average” value (EAMG rats; EAMG rats, 1 month daily oral treatment) is reported as 13 g. The “Serum AChE-R level” value (AChE-R) was “reducing its serum level”.
